From patent US20110263509A1, “PREPARATION AND USE OF HIGH-PURITY HEMOPARATIDE (HPTH-1-37) FOR THE TREATMENT OF INFLAMMATORY SCALING DISEASES OF THE SKIN” (Haemopep Pharma GmbH, priority 2008, published 2011)

What was measured:
[1] = Solubility, dissolution time (specification); assay type: physicochemical
[2] = Storage stability of the lyophilized preparation at +4° C., HPLC comparison of fresh material and material stored nine months; assay type: physicochemical; settings: lyophilized form
Source text: FIGS. 4A and 4B disclose HPLC chromatograms of hPTH-1-37. […] FIG. 4B is a chromatogram of hPTH-1-37 stored for nine months. […] Further, FIG. 5 discloses a comparison between the HPLC chromatograms of freshly prepared hPTH-1-37 (A) and a commercially obtainable preparation.

[3] = Stability of the active ingredient in hydrophilic ointment (cream) formulation; assay type: physicochemical; settings: hydrophilic ointment DAB base; except for methionine-oxidized metabolites
Source text: In one embodiment of the invention, the hemoparatide (hPTH-1-37) or its derivatives are used for preparing a medicament in different galenic application forms, especially as a lyophilizate. In one embodiment of this medicament, a hydrophilic ointment, especially according to the German Pharmacopoeia, is used as a galenic application base. […] These oxidized metabolites also occur as natural PTH forms in the blood plasma, but can be avoided by working under a nitrogen atmosphere, and are free from side effects, being naturally occurring endogenous derivatives.
Hemoparatide was incorporated into this base in concentrations of 0.03% by weight, 0.1% by weight and 0.3% by weight.
These oxidized metabolites also occur as natural PTH forms in the blood plasma, but can be avoided by working under a nitrogen atmosphere, and are free from side effects, being naturally occurring endogenous derivatives.

[4] = Phase I trial, tolerability of subcutaneous injection in aqueous solution; assay type: in vivo; settings: humans

| Structure (SMILES) | Solubility, dissolution time [1] | Methionine-oxidized metabolites after storage (stability) [2] | Stability of active ingredient in formulation [3] | Tolerability [4] |
| --- | --- | --- | --- | --- |
| CC[C@H](C)[C@H](NC(=O)[C@H](CCC(=O)O)NC(=O)[C@H](CO)NC(=O)[C@@H](NC(=O)[C@@H](N)CO)C(C)C)C(=O)N[C@@H](CCC(N)=O)C(=O)N[C@@H](CC(C)C)C(=O)N[C@@H](CCSC)C(=O)N[C@@H](Cc1c[nH]cn1)C(=O)N[C@@H](CC(N)=O)C(=O)N[C@@H](CC(C)C)C(=O)NCC(=O)N[C@@H](CCCCN)C(=O)N[C@@H](Cc1c[nH]cn1)C(=O)N[C@@H](CC(C)C)C(=O)N[C@@H](CC(N)=O)C(=O)N[C@@H](CO)C(=O)N[C@@H](CCSC)C(=O)N[C@@H](CCC(=O)O)C(=O)N[C@@H](CCCNC(=N)N)C(=O)N[C@H](C(=O)N[C@@H](CCC(=O)O)C(=O)N[C@@H](Cc1c[nH]c2ccccc12)C(=O)N[C@@H](CC(C)C)C(=O)N[C@@H](CCCNC(=N)N)C(=O)N[C@@H](CCCCN)C(=O)N[C@@H](CCCCN)C(=O)N[C@@H](CC(C)C)C(=O)N[C@@H](CCC(N)=O)C(=O)N[C@@H](CC(=O)O)C(=O)N[C@H](C(=O)N[C@@H](Cc1c[nH]cn1)C(=O)N[C@@H](CC(N)=O)C(=O)N[C@@H](Cc1ccccc1)C(=O)N[C@H](C(=O)N[C@@H](C)C(=O)N[C@@H](CC(C)C)C(=O)O)C(C)C)C(C)C)C(C)C [hPTH-1-37] | ≦2 min | Only very small amounts of methionine-oxidized metabolites can be detected | very stable |  |
| CC[C@H](C)[C@H](NC(=O)[C@H](CCC(=O)O)NC(=O)[C@H](CO)NC(=O)[C@@H](NC(=O)[C@@H](N)CO)C(C)C)C(=O)N[C@@H](CCC(N)=O)C(=O)N[C@@H](CC(C)C)C(=O)N[C@@H](CCSC)C(=O)N[C@@H](Cc1c[nH]cn1)C(=O)N[C@@H](CC(N)=O)C(=O)N[C@@H](CC(C)C)C(=O)NCC(=O)N[C@@H](CCCCN)C(=O)N[C@@H](Cc1c[nH]cn1)C(=O)N[C@@H](CC(C)C)C(=O)N[C@@H](CC(N)=O)C(=O)N[C@@H](CO)C(=O)N[C@@H](CCSC)C(=O)N[C@@H](CCC(=O)O)C(=O)N[C@@H](CCCNC(=N)N)C(=O)N[C@H](C(=O)N[C@@H](CCC(=O)O)C(=O)N[C@@H](Cc1c[nH]c2ccccc12)C(=O)N[C@@H](CC(C)C)C(=O)N[C@@H](CCCNC(=N)N)C(=O)N[C@@H](CCCCN)C(=O)N[C@@H](CCCCN)C(=O)N[C@@H](CC(C)C)C(=O)N[C@@H](CCC(N)=O)C(=O)N[C@@H](CC(=O)O)C(=O)N[C@H](C(=O)N[C@@H](Cc1c[nH]cn1)C(=O)N[C@@H](CC(N)=O)C(=O)N[C@@H](Cc1ccccc1)C(=O)N[C@H](C(=O)N[C@@H](C)C(=O)N[C@@H](CC(C)C)C(=O)O)C(C)C)C(C)C)C(C)C [highly pure hemoparatide] | ≦2 min | only a small amount of methionine-oxidized metabolites appears |  | high tolerability |
